The results in this text go back to patent US6696486B1, “Medical use for atypical β-adrenoceptor agonists” (Glaxo Group Limited, priority 1992, dated 2004).

Molecules are shown by their SMILES.

Series [1] relates to indomethacin-induced antral damage. The series can be described thus: indomethacin-induced gastric antral lesions in the re-fed rat (Method 2). The note with it: for % Protection: single dose 30 minutes before indomethacin (60 mg/kg s.c.). It counts as in vivo. An excerpt:
An experimental model in which atypical beta-adrenoceptor agonists may be shown to be of use in the treatment of gastrointestinal disorders is described below as Method 2. The procedure is based upon that described by H. Satoh et. al., Gastroenterology, 81, 719-725 (1981) in which the effect of compounds on indomethacin-induced gastric antral lesions in the re-fed rat is investigated. Indomethacin is an example of the class of compound known as non-steroidal anti-inflammatory drugs (NSAIDs), the use of which is frequently associated with gastrointestinal ulcers.
Food (but not water) is withheld from female random hooded rats (70-120 g) for 24 hours and then the rats are re-fed with Rat and Mouse No. 1 Maintenance Diet. After 1 hour of access to food, the rats are dosed orally with either the test compound or solvent (0.5% w/v methyl cellulose in water). 30 minutes later, indomethacin (60 mg/kg; dissolved in 1% w/v NaHCO3 in saline) is administered as a single subcutaneous injection at the back of the neck. Subsequently, the rats are allowed food, but water is withheld, and the animals are humanely killed by cervical dislocation at 6 hours post dose. Control animals received a single subcutaneous dose of the appropriate solvent.
The rat's stomach is removed (with a small amount of duodenum attached), opened along the greater curvature and the contents removed by washing with 0.9% w/v sodium chloride solution (saline). The opened stomach is pinned out (mucosal surface uppermost) on a polystyrene mat and the area of damage assessed by placing a grid (composed of 1 mm squares) over the antral region. Antral damage appears as discrete black or dark brown ulcers. The total area of antral damage is then expressed as a percentage of the total surface area of the antrum.
The protective effect of the test compound on indomethacin-induced antral damage is calculated as a percentage using the following equation: [formula]

For series [2], the system named is piroxicam-induced antral damage. It counts as in vivo, rat.
The test system of series [3] is indomethacin-induced ulceration of the small intestine. The series can be described thus: indomethacin-induced ulceration of the small intestine in the rat (Method 3). It counts as in vivo. The following applies: single dose 30 minutes before indomethacin (15 mg/kg p.o.). The procedure: Another experimental model in which atypical beta-adrenocopter agonists may be shown to be of use in the treatment of gastrointestinal disorders is described below as Method 3. This is a model of indomethacin-induced ulceration of the small intestine in the rat.
Female random hooded rats (100-150 g) are allowed free access to food and water. The rats are dosed orally with either the test compound (1 ml per 100 g of an appropriated dose) or solvent (0.5% w/v methyl cellulose in water). 30 minutes later, indomethacin (15 mg/kg) is administered orally using a dose volume of 1 ml per 100 g of a 1.5 mg/ml solution of indomethacin in 1% w/v NaHCO3. The animals are humanely killed by cervical dislocation at 48 hours post dose.
The rat's small intestine is removed, opened along its length and the contents removed by washing with 0.9% w/v sodium chloride solution (saline). The opened small intestine is pinned out (mucosal surface uppermost) on a polystyrene mat and the area of damage assessed by placing a grid (composed of 1 mm squares) over the preparation. The number of visible ulcers (appearing as discrete black or brown lesions) running the length of the small intestine is counted. The protective effect of the test compound is calculated as a percentage using the following equation: [formula]

[4] abbreviates: inhibition of indomethacin-induced antral ulceration in rat.
The mark [5] stands for this setting: 0.5 mg/kg p.o., single dose 30 minutes before NSAID.

Consider `C[C@@H](Cc1ccc(OCC(=O)O)cc1)NC[C@H](O)c1cccc(Cl)c1` [(R,S)-N-[2-(4-carboxymethoxyphenyl)-1-methylethyl]-2-hydroxy-2-(3-chlorophenyl)ethanamine], for which the “Maximum Inhibition (dose; mg/kg p.o.)” value in series [1] (dose 3 mg/kg p.o.) is recorded as 77% (3). In addition, the ED50 in series [1] (setting [4]) was 0.3 mg/kg p.o.
With `CN1C(C(=O)Nc2ccccn2)=C(O)c2ccccc2S1(=O)=O` [piroxicam, reference compound], the “percentage area of antral damage” value in series [2] (female, random hooded, rat, in vivo, sc, 60 mg/kg, 6 h) is recorded as 21±3%.
Regarding `C[C@H](Cc1ccc2c(c1)OC(C(=O)O)(C(=O)O)O2)NC[C@H](O)c1cccc(Cl)c1` [CL 316243, (R,R)-5-(2-((2-(3-chlorophenyl)-2-hydroxyethyl)amino)propyl)-1,3-benzodioxole-2,2-dicarboxylic acid], in series [3] (10 mg/kg p.o.), the “% inhibition” value turned out to be 93 ± 4%. For the same molecule, the “% inhibition of indomethacin-induced damage” value in series [1] (setting [5]) is recorded as 83%. Moreover, in series [1] (dose 1 mg/kg p.o.), the “Maximum Inhibition (dose; mg/kg p.o.)” value is 96% (1). Moreover, the ED50 in series [1] (setting [4]) amounted to 0.03 mg/kg p.o. The “% inhibition of piroxicam-induced damage” value in series [2] (setting [5]) worked out at 96%.
In the case of `COC(=O)COc1ccc(C[C@H](C)NC[C@H](O)c2cccc(Cl)c2)cc1` [(R,S)-N-[2-(4-carbomethoxymethoxyphenyl)-1-methylethyl]-2-hydroxy-2-(3-chlorophenyl)ethanamine], the “Maximum Inhibition (dose; mg/kg p.o.)” value in series [1] (dose 3 mg/kg p.o.) was 93% (3). The same molecule showed an ED50 in series [1] (setting [4]) of 0.2 mg/kg p.o.
Take `COC(=O)COc1ccc(CC(C)NCC(O)c2cccc(Cl)c2)cc1` (stereo not shown) [BRL 35135, N-[2-(4-carbomethoxymethoxyphenyl)-1-methylethyl]-2-hydroxy-2-(3-chlorophenyl)ethanamine]: the “% inhibition” value is 24 ± 15% in series [3] (0.05 mg/kg p.o.); 35 ± 7% in series [3] (0.1 mg/kg p.o.); 76 ± 3% in series [3] (0.5 mg/kg p.o.); 85 ± 3% in series [3] (2.5 mg/kg p.o.); 80 ± 3% in series [3] (10 mg/kg p.o.). The “% Protection” value is 40% in series [1] (20 μg/kg p.o.), 48% in series [1] (50 μg/kg p.o.), 88% in series [1] (100 μg/kg p.o.) and 97% in series [1] (500 μg/kg p.o.). The ED50 entry in series [1] (gastro-protection against indomethacin-induced antral damage, rat) is given as “approximately 50 μg/kg p.o”.
Regarding `C[C@H](Cc1ccc2c(c1)OC(C(=O)O)(C(=O)O)O2)NC[C@@H](O)c1cccc(Cl)c1` [(R,S)-5-(2-((2-(3-chlorophenyl)-2-hydroxyethyl)amino)propyl)-1,3-benzodioxole-2,2-dicarboxylic acid], the “Maximum Inhibition (dose; mg/kg p.o.)” value in series [1] (dose 1 mg/kg p.o.) is 64% (1). In addition, the ED50 in series [1] (setting [4]) stood at 0.6 mg/kg p.o.
Take `COC(=O)COc1ccc(C[C@@H](C)NC[C@@H](O)c2cccc(Cl)c2)cc1` [(S,R)-N-[2-(4-carbomethoxymethoxyphenyl)-1-methylethyl]-2-hydroxy-2-(3-chlorophenyl)ethanamine]: the “Maximum Inhibition (dose; mg/kg p.o.)” value in series [1] (dose 3 mg/kg p.o.) is on record as 88% (3). The molecule also showed an ED50 in series [1] (setting [4]) of 0.5 mg/kg p.o.
On the same counts, the results for `COC(=O)COc1ccc(C[C@@H](C)NC[C@H](O)c2cccc(Cl)c2)cc1` [(R,R)-N-[2-(4-carbomethoxymethoxyphenyl)-1-methylethyl]-2-hydroxy-2-(3-chlorophenyl)ethanamine] are 100% (3) and 0.02 mg/kg p.o.
`C[C@@H](Cc1ccc(OCC(=O)O)cc1)NC[C@@H](O)c1cccc(Cl)c1` [(S,S)-N-[2-(4-carboxymethoxyphenyl)-1-methylethyl]-2-hydroxy-2-(3-chlorophenyl)ethanamine]: the “Maximum Inhibition (dose; mg/kg p.o.)” value in series [1] (dose 3 mg/kg p.o.) is given as 97% (3). The molecule also yielded an ED50 in series [1] (setting [4]) of 0.8 mg/kg p.o.
Take `C[C@H](Cc1ccc(OCC(=O)O)cc1)NC[C@H](O)c1cccc(Cl)c1` [(R,R)-N-[2-(4-carboxymethoxyphenyl)-1-methylethyl]-2-hydroxy-2-(3-chlorophenyl)ethanamine]: the “Maximum Inhibition (dose; mg/kg p.o.)” value in series [1] (dose 3 mg/kg p.o.) is 100% (3). The ED50 in series [1] (setting [4]) worked out at 0.03 mg/kg p.o.
Take `COc1ccc2c(c1)c(CC(=O)O)c(C)n2C(=O)c1ccc(Cl)cc1` [indomethacin, reference compound]: the “percentage area of damage (antral)” value in series [1] (subcutaneous dose of 60 mg/kg, rat) turned out to be 19±5%.

The % inhibition is how much of the control response was suppressed.
